The results in this text go back to US7674620B2, “Derivation of terminally differentiated dopaminergic neurons from human embryonic stem cells” (Reliance Life Sciences Pvt. Ltd., priority 2003, dated 2010).

Data set [1] deals with embryonic stem cell-derived dopaminergic neurons. Description: Intracellular dopamine in cell lysates by RP-HPLC. It is filed as cell-based, human. Particulars: for Dopamine concentration in cell lysates by HPLC: 56 mM KCl. As to the method:
One definitive characteristic of a dopaminergic neuron is the production of dopamine. Therefore, the functional capacity of embryonic stem cell-derived dopaminergic neurons to produce dopamine was evaluated by directly measuring the intracellular dopamine levels using Reverse Phase HPLC (RP-HPLC). The concentration of dopamine detected in each sample was determined by comparison with a standard solution of dopamine injected into the column immediately before and after each experiment.
(§1) To begin, cells were collected at different stages of the disclosed method: undifferentiated ES cells, embryoid bodies, Nestin-positive neuroprogenitor cells, NCAM-positive cells, and differentiated cells isolated after 7, 22, and 37 days of differentiation in Neurobasal medium. Before collection, the cells differentiated in Neurobasal medium were first stimulated to induce dopamine secretion by the addition of 56 mM KCl in HBSS for 15 minutes. Approximately 5×10^6 cells were trypsinised and pelleted by centrifugation. The cells were then sonicated in cold 1N perchloric acid with antioxidants (0.2 g/l sodium metabisulphite), and centrifuged at 15,000 rpm/min for 20 minutes at 4° C. The supematent was extracted and stored at −70° C. for subsequent determination of the intracellular dopamine concentration by RP-HPLC. Dopamine levels were determined in the cell lysates and culture supematent (48 hrs after the last medium change). The culture supematent was immediately stabilized with 7.5% orthophosphoric acid and sodium metabisulphite.

Data set [2] shares this test system. Briefly: Dopamine release into conditioned medium by RP-HPLC. The format is cell-based, human. Particulars: 56 mM for 15 minutes, 7, 22, 37 days of differentiation. How it is done: The cells were stimulated with 56 mM KCl for 15 minutes to induce secretion of dopamine; the culture supernatant was stabilized with 7.5% orthrophosphoric acid and sodium metabisulphite before analysis by RP-HPLC.
as §1

Data set [3] shares this test system. Briefly: Intracellular dopamine in cell lysates by RP-HPLC. It is filed as cell-based, human. The following applies: cell cultures incubated with the neurotoxin.
Data set [4] concerns neuroprogenitor cells derived from human embryonic stem cells. Description: Differentiation of neuroprogenitor cells into TH positive (dopaminergic) neurons, immunofluorescence. The format is cell-based. The following applies: present in the Neurobasal medium. The text has this:
Development of dopaminergic neurons in vivo depends on the regulated action of extracellular signaling molecules. These molecules activate a cascade of transcription factors with lineage-restricted expression. These transcription factors are responsible for increasing the expression of a specific set of genes involved in the development of the dopaminergic phenotype. To encourage the expanded neuroprogenitors cells generated using the above protocol into functional dopaminergic neurons, the growth factors bFGF and EGF were first withdrawn from the cells. Next, differentiation of the neuroprogenitors cells into dopaminergic neurons was induced by culturing the cells in Neurobasal medium for 30-50 days. […]
The differentiated neuronal cell types generated according to the present disclosure were evaluated both by the overall morphology of the cells, as well as the phenotypes identified by immunoflourescence. […]
The differentiated cells were also analyzed by double-labeling the cells with primary antibodies to TH (green), along with MAP-2, DAT, Nurr-1, β-Tubulin, FITC-labeled secondary antibodies (Texas red) respectively (FIG. 8). […] The cell density of dopaminergic neurons was quantified by counting the numbers of TH-positive cells and MAP-2-positive cells per field in randomly selected fields using a 40× objective lens. The percent proportion of TH-positive cells was calculated (FIG. 9). […]

Regarding `[Cl-].[K+]` [KCl], the “Dopamine concentration in cell lysates by HPLC” value in data set [1] (7 d, line #3, after 'Addition of growth factors') came to 5.5 µg/mL; in data set [1] (7 d, line #5, after 'N-acetyl cysteine along with growth factors') it was 8.8 µg/mL; in data set [1] (7 d, line #7, after 'Ascorbic acid along with growth factors') it was 6.9 µg/mL; in data set [1] (22 d, line #3, after 'Addition of growth factors') it was 22 µg/mL; in data set [1] (22 d, line #5, after 'N-acetyl cysteine along with growth factors'), 30.9 µg/mL; in data set [1] (22 d, line #7, after 'Ascorbic acid along with growth factors'), 5.5 µg/mL. In addition, the “Dopamine concentration in cell lysates by HPLC” value in data set [1] (37 d, line #3, after 'Addition of growth factors') stood at 7.2 µg/mL; in data set [1] (37 d, line #5, after 'N-acetyl cysteine along with growth factors'), 10 µg/mL; in data set [1] (37 d, line #7, after 'Ascorbic acid along with growth factors') it was 10 µg/mL. Also, the entries for the “dopamine release into the conditioned medium (FIG. 14)” value in data set [2] and in data set [2] (listed as KCL) were “causes dopamine release” and “increase”, respectively.

As for `CN1CC=C(c2ccccc2)CC1.Cl` [MPTP, N-methyl-4-phenyl 1,2,3,6-tetrahydropyridine hydrochloride], the “intracellular dopamine in cell lysates of treated cells (FIG. 13)” value in data set [1] (7 days of differentiation) is “No dopamine was detected”; in data set [1] (22 days of differentiation) it was “No dopamine was detected”; in data set [1] (37 days of differentiation), “reduced”. The “dopamine in cell lysates of incubated cell cultures by RP-HPLC” value in data set [3] is “no dopamine was detected”.

For “IL-1β: Interleukin-1β, growth factor in the Neurobasal medium”, in data set [4], the “effect on amount of TH positive neurons” value is reported as “appears to increase the amount of TH positive neurons”.
